{"source": "patent US20110182850A1", "about": "“ORGANIC COMPOUNDS AND THEIR USES” (priority 2009, published 2011)"}
{"biological_target": "T1, HCV NS3-4A serine protease (full-length NS3-4A protein, genotype 1a, strain HCV-1) (Hepatitis C virus genotype 1a, UniProt P26664)", "T1 construct": "using the full-length NS3-4A protein (genotype 1a, strain HCV-1)", "T1 sequence (P26664 1658-1711)": "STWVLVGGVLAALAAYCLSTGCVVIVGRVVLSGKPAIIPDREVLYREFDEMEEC", "T1 sequence (P26664 1027-1657)": "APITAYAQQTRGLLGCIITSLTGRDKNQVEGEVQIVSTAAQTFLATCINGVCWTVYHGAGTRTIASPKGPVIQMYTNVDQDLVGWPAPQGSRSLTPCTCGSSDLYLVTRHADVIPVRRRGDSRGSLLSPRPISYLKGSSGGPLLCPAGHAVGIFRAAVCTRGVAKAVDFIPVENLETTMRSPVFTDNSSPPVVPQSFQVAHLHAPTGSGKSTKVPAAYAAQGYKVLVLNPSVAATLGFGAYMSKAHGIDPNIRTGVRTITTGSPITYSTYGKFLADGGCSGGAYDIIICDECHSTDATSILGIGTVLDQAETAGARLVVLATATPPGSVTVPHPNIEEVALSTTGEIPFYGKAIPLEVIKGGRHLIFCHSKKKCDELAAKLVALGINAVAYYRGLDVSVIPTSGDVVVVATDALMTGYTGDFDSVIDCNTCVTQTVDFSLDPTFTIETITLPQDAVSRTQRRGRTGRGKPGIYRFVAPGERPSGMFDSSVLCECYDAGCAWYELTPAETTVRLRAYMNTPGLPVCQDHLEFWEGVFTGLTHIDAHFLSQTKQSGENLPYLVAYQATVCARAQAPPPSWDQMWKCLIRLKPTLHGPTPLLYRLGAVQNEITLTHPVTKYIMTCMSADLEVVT", "assay": "HCV NS3-4A protease assay", "type": "biochemical", "settings": "Protease IC50", "description": "(§1) The inhibitory activity of certain compounds of Table A against HCV NS3-4A serine protease is determined in a homogenous assay using the full-length NS3-4A protein (genotype 1a, strain HCV-1) and a commercially available internally-quenched fluorogenic peptide substrate as described by Taliani, M., et al. 1996 Anal. Biochem. 240:60-67, which is incorporated by reference in its entirety.", "units": {"IC50": "nM"}}
{"smiles": "C=C[C@@H]1C[C@]1(NC(=O)[C@@H]1C[C@@]2(CN1C(=O)[C@@H](NC(=O)[C@H]1NC(=O)[C@@H]3CCCCN3CCCCCCC1(C)C)C(C)(C)C)C(C)(C)C21CCC1)C(=O)NS(=O)(=O)C1CC1", "note": "[Compound 53, (5R,8S)-N-{(1R,2S)-1-[(cyclopropylsulfonyl)carba-moyl]-2-vinylcyclopropyl}-7-[(2S)-2-({[(3S,15aS)-4,4-dimethyl-1-oxotetradecahydro-2H-pyrido[1,2-a][1,4]diazacyclododecin-3-yl]carbonyl}amino)-3,3-dimethylbutanoyl]-10,10-dimethyl-7-azadispiro[3.0.4.1]decane-8-carboxamide]", "IC50": 3.5}
{"smiles": "C=C[C@@H]1C[C@]1(NC(=O)[C@@H]1C[C@@]2(CN1C(=O)[C@@H](NC(=O)[C@@H](NC(=O)N1CCN(C)CC1)C(C)(C)C)C(C)(C)C)C(C)(C)C21CCC1)C(=O)NS(=O)(=O)C1CC1", "note": "[Compound 55, (5R,8S)-N-{(1R,2S)-1-[(cyclopropylsulfonyl)carba-moyl]-2-vinylcyclopropyl}-7-[(2S)-2-{[(2S)-3,3-dimethyl-2-{[(4-methylpiperazin-1-yl)carbonyl]amino}butanoyl]amino}-3,3-dimethylbutanoyl]-10,10-dimethyl-7-azadispiro[3.0.4.1]decane-8-carboxamide]", "IC50": 25}
{"smiles": "C=C[C@@H]1C[C@]1(NC(=O)[C@@H]1C[C@@]2(CN1C(=O)[C@@H](NC(=O)[C@@H](NC(=O)N(C)C)C(C)(C)C)C(C)(C)C)C(C)(C)C21CCC1)C(=O)NS(=O)(=O)C1CC1", "note": "[Compound 56, (5R,8S)-N-{(1R,2S)-1-[(cyclopropylsulfonyl)carba-moyl]-2-vinylcyclopropyl}-7-[(2S)-2-({(2S)-2-[(dimethylcarbamoyl)amino]-3,3-dimethylbutanoyl}amino)-3,3-dimethylbutanoyl]-10,10-dimethyl-7-azadispiro[3.0.4.1]decane-8-carboxamide]", "IC50": 50}
{"smiles": "C=C[C@@H]1C[C@]1(NC(=O)[C@@H]1C[C@@]2(CN1C(=O)[C@@H](NC(=O)[C@@H](NC(=O)[C@@H]1CCCCN1C(C)C)C1CCCCC1)C(C)(C)C)C(C)(C)C21CCC1)C(=O)NS(=O)(=O)c1ccccc1", "note": "[Compound 61, (5R,8S)-7-[(2S)-2-{[(2S)-2-cyclohexyl-2-({[(2S)-1-isopropylpiperidin-2-yl]carbonyl}amino)acetyl]amino}-3,3-dimethylbutanoyl]-10,10-dimethyl-N-{(1R,2S)-1-[(phenylsulfonyl)carbamoyl]-2-vinylcyclopropyl}-7-azadispiro[3.0.4.1]decane-8-carboxamide]", "IC50": 1.5}
{"smiles": "C=C[C@@H]1C[C@]1(NC(=O)[C@@H]1C[C@@]2(CN1C(=O)[C@@H](NC(=O)[C@@H](NC(=O)[C@@H]1CCCN1C(C)C)C1CCCCC1)C(C)(C)C)C(C)(C)C21CCC1)C(=O)NS(=O)(=O)c1ccccc1", "note": "[Compound 62, (5R,8S)-7-[(2S)-2-{[(2S)-2-cyclohexyl-2-({[(2S)-1-isopropylpyrrolidin-2-yl]carbonyl}amino)acetyl]amino}-3,3-dimethylbutanoyl]-10,10-dimethyl-N-{(1R,2S)-1-[(phenylsulfonyl)carbamoyl]-2-vinylcyclopropyl}-7-azadispiro[3.0.4.1]decane-8-carboxamide]", "IC50": 0.7}
{"biological_target": "T1, HCV NS3-4A serine protease (full-length NS3-4A protein, genotype 1a, strain HCV-1)", "assay": "HCV NS3-4A protease assay", "type": "biochemical", "settings": "read-out: Protease IC50", "description": "as §1", "units": {"IC50": "nM"}}
{"smiles": "C=C[C@@H]1C[C@]1(NC(=O)[C@@H]1C[C@@]2(CN1C(=O)[C@@H](NC(=O)[C@@H](NS(=O)(=O)c1ccccc1)C(C)(C)C)C(C)(C)C)C(C)(C)C21CCC1)C(=O)NS(=O)(=O)C1CC1", "note": "[Compound 46, (5R,8S)-N-{(1R,2S)-1-[(cyclopropylsulfonyl)carba-moyl]-2-vinylcyclopropyl}-7-[(2S)-2-({(2S)-3,3-dimethyl-2-[(phenylsulfonyl)amino]butanoyl}amino)-3,3-dimethylbutanoyl]-10,10-dimethyl-7-azadispiro[3.0.4.1]decane-8-carboxamide]", "IC50": 150}
{"smiles": "C=C[C@@H]1C[C@]1(NC(=O)[C@@H]1C[C@@]2(CN1C(=O)[C@@H](NC(=O)[C@@H](NS(C)(=O)=O)C(C)(C)C)C(C)(C)C)C(C)(C)C21CCC1)C(=O)NS(=O)(=O)C1CC1", "note": "[Compound 47, (5R,8S)-N-{(1R,2S)-1-[(cyclopropylsulfonyl)carba-moyl]-2-vinylcyclopropyl}-7-[(2S)-2-({(2S)-3,3-dimethyl-2-[(methylsulfonyl)amino]butanoyl}amino)-3,3-dimethylbutanoyl]-10,10-dimethyl-7-azadispiro[3.0.4.1]decane-8-carboxamide]", "IC50": 65}
{"smiles": "C=C[C@@H]1C[C@]1(NC(=O)[C@@H]1C[C@@]2(CN1C(=O)[C@@H](NC(=O)[C@@H](NS(=O)(=O)N(C)C)C(C)(C)C)C(C)(C)C)C(C)(C)C21CCC1)C(=O)NS(=O)(=O)C1CC1", "note": "[Compound 48, (5R,8S)-N-{(1R,2S)-1-[(cyclopropylsulfonyl)carba-moyl]-2-vinylcyclopropyl}-7-[(2S)-2-{[(2S)-2-{[(dimethylamino)sulfonyl]amino}-3,3-dimethylbutanoyl]amino}-3,3-dimethylbutanoyl]-10,10-dimethyl-7-azadispiro[3.0.4.1]decane-8-carboxamide]", "IC50": 95}
{"smiles": "C=C[C@@H]1C[C@]1(NC(=O)[C@@H]1C[C@@]2(CN1C(=O)[C@@H](NC(=O)[C@@H](NS(=O)(=O)c1ncn[nH]1)C(C)(C)C)C(C)(C)C)C(C)(C)C21CCC1)C(=O)NS(=O)(=O)C1CC1", "note": "[Compound 49, (5R,8S)-N-{(1R,2S)-1-[(cyclopropylsulfonyl)carba-moyl]-2-vinylcyclopropyl}-7-[(2S)-2-({(2S)-3,3-dimethyl-2-[(1H-1,2,4-triazol-5-ylsulfonyl)amino]butanoyl}amino)-3,3-dimethylbutanoyl]-10,10-dimethyl-7-azadispiro[3.0.4.1]decane-8-carboxamide]", "IC50": 200}
{"smiles": "C=C[C@@H]1C[C@]1(NC(=O)[C@@H]1C[C@@]2(CN1C(=O)[C@@H](NC(=O)[C@@H](NS(=O)(=O)Cc1ccccc1)C(C)(C)C)C(C)(C)C)C(C)(C)C21CCC1)C(=O)NS(=O)(=O)C1CC1", "note": "[Compound 50, (5R,8S)-7-[(2S)-2-({(2S)-2-[(benzylsulfonyl)amino]-3,3-dimethylbutanoyl}amino)-3,3-dimethylbutanoyl]-N-{(1R,2S)-1-[(cyclopropylsulfonyl)carba-moyl]-2-vinylcyclopropyl}-10,10-dimethyl-7-azadispiro[3.0.4.1]decane-8-carboxamide]", "IC50": 20}
{"smiles": "C=C[C@@H]1C[C@]1(NC(=O)[C@@H]1C[C@@]2(CN1C(=O)[C@@H](NC(=O)[C@@H](NS(=O)(=O)c1c(C)noc1C)C(C)(C)C)C(C)(C)C)C(C)(C)C21CCC1)C(=O)NS(=O)(=O)C1CC1", "note": "[Compound 51, (5R,8S)-N-{(1R,2S)-1-[(cyclopropylsulfonyl)carba-moyl]-2-vinylcyclopropyl}-7-[(2S)-2-{[(2S)-2-{[(3,5-dimethylisoxazol-4-yl)sulfonyl]amino}-3,3-dimethylbutanoyl]amino}-3,3-dimethylbutanoyl]-10,10-dimethyl-7-azadispiro[3.0.4.1]decane-8-carboxamide]", "IC50": 250}
{"smiles": "C=C[C@@H]1C[C@]1(NC(=O)[C@@H]1C[C@@]2(CN1C(=O)[C@@H](NC(=O)[C@@H](NS(=O)(=O)c1cn(C)cn1)C(C)(C)C)C(C)(C)C)C(C)(C)C21CCC1)C(=O)NS(=O)(=O)C1CC1", "note": "[Compound 52, (5R,8S)-N-{(1R,2S)-1-[(cyclopropylsulfonyl)carba-moyl]-2-vinylcyclopropyl}-7-[(2S)-2-{[(2S)-3,3-dimethyl-2-{[(1-methyl-1H-imidazol-4-yl)sulfonyl]amino}butanoyl]amino}-3,3-dimethylbutanoyl]-10,10-dimethyl-7-azadispiro[3.0.4.1]decane-8-carboxamide]", "IC50": 200}
{"smiles": "C=C[C@@H]1C[C@]1(NC(=O)[C@@H]1C[C@@]2(CN1C(=O)[C@@H](NC(=O)c1cocn1)C(C)(C)C)C(C)(C)C21CCC1)C(=O)NS(=O)(=O)C1CC1", "note": "[Compound 54, (5R,8S)-N-{(1R,2S)-1-[(cyclopropylsulfonyl)carba-moyl]-2-vinylcyclopropyl}-7-{(2S)-3,3-dimethyl-2-[(1,3-oxazol-4-ylcarbonyl)amino]butanoyl}-10,10-dimethyl-7-azadispiro[3.0.4.1]decane-8-carboxamide]", "IC50": 2150}
{"smiles": "C=C[C@@H]1C[C@]1(NC(=O)[C@@H]1C[C@@]2(CN1C(=O)[C@@H](NC(=O)[C@@H](NS(=O)(=O)C(C)C)C(C)(C)C)C(C)(C)C)C(C)(C)C21CCC1)C(=O)NS(=O)(=O)C1CC1", "note": "[Compound 58, (5R,8S)-N-{(1R,2S)-1-[(cyclopropylsulfonyl)carba-moyl]-2-vinylcyclopropyl}-7-[(2S)-2-({(2S)-2-[(isopropylsulfonyl)amino]-3,3-dimethylbutanoyl}amino)-3,3-dimethylbutanoyl]-10,10-dimethyl-7-azadispiro[3.0.4.1]decane-8-carboxamide]", "IC50": 400}
{"smiles": "C=C[C@@H]1C[C@]1(NC(=O)[C@@H]1C[C@@]2(CN1C(=O)[C@@H](NC(=O)c1coc(CN(C)C)n1)C(C)(C)C)C(C)(C)C21CCC1)C(=O)NS(=O)(=O)C1CC1", "note": "[Compound 59, (5R,8S)-N-{(1R,2S)-1-[(cyclopropylsulfonyl)carba-moyl]-2-vinylcyclopropyl}-7-{(2S)-2-[({2-[(dimethylamino)methyl]-1,3-oxazol-4-yl}carbonyl)amino]-3,3-dimethylbutanoyl}-10,10-dimethyl-7-azadispiro[3.0.4.1]decane-8-carboxamide]", "IC50": 400}
{"smiles": "C=C[C@@H]1C[C@]1(NC(=O)[C@@H]1C[C@@]2(CN1C(=O)[C@@H](NC(=O)[C@@H](CC(=O)N1CCCCC1)C(C)(C)C)C(C)(C)C)C(C)(C)C21CCC1)C(=O)NS(=O)(=O)C1CC1", "note": "[Compound 60, (5R,8S)-N-{(1R,2S)-1-[(cyclopropylsulfonyl)carba-moyl]-2-vinylcyclopropyl}-7-[(2S)-2-{[(2S)-3,3-dimethyl-2-(2-oxo-2-piperidin-1-ylethyl)butanoyl]amino}-3,3-dimethylbutanoyl]-10,10-dimethyl-7-azadispiro[3.0.4.1]decane-8-carboxamide]", "IC50": 200}
